Laboratory results published in ChEMBL document CHEMBL1201862, “PubChem BioAssay data set” (2004).
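Where inhibition never reached the appropriate level, the endpoint shown equals the highest concentration tested. Otherwise, values were interpolated linearly from a five-concentration, 48-hour dose response in 96-well plates. Abbreviation: GI50, concentration required for 50% inhibition of growth.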 Calls of active or inactive are those of the source. No stated cut-off is given here; in the data, active = GI50 up to about 1.1 µM and inactive = higher.

How the values were obtained:
Experiment in all cases: NCI tumour cell line growth inhibition, 48 h
LOX IMVI = tested on: LOX IMVI
M14 = tested on: M14
NCI-H460 = tested on: NCI-H460
OVCAR-8 = tested on: OVCAR-8
Malme-3M = tested on: Malme-3M
HL-60 = tested on: HL-60
MDA-N = tested on: MDA-N
OVCAR-5 = tested on: OVCAR-5
OVCAR-3 = tested on: OVCAR-3
HCC 2998 = tested on: HCC 2998
UACC-257 = tested on: UACC-257
NCI-H226 = tested on: NCI-H226
TK-10 = tested on: TK-10
NCI-H23 = tested on: NCI-H23
HCT-15 = tested on: HCT-15
SK-MEL-2 = tested on: SK-MEL-2
MCF7 = tested on: MCF7
A498 = tested on: A498
RXF 393 = tested on: RXF 393
RPMI-8226 = tested on: RPMI-8226

Compound	GI50 (LOX IMVI)	GI50 (M14)	GI50 (NCI-H460)	GI50 (OVCAR-8)	GI50 (Malme-3M)	GI50 (HL-60)	GI50 (MDA-N)	GI50 (OVCAR-5)	GI50 (OVCAR-3)	GI50 (HCC 2998)	GI50 (UACC-257)	GI50 (NCI-H226)	GI50 (TK-10)	GI50 (NCI-H23)	GI50 (HCT-15)	GI50 (SK-MEL-2)	GI50 (MCF7)	GI50 (A498)	GI50 (RXF 393)	GI50 (RPMI-8226)
COc1ccc(/C(C)=C2\CCCN(Cc3ccccc3)C2)cc1	16.7 µM (inactive)	18.1 µM (inactive)	22.4 µM (inactive)	18.3 µM (inactive)	19.2 µM (inactive)	23.2 µM (inactive)	18.8 µM (inactive)	31.4 µM (inactive)	18.6 µM (inactive)	21 µM (inactive)	29.2 µM (inactive)	21.5 µM (inactive)	38.8 µM (inactive)	25.8 µM (inactive)	20.3 µM	19.1 µM (inactive)	19.2 µM (inactive)	33.7 µM (inactive)	18.6 µM (inactive)	18.6 µM (inactive)
O=c1[nH]cnc2c1ncn2C1SC(CO)C(O)C1O (stereo not given)	> 100 µM (inactive)	> 100 µM (inactive)	> 100 µM (inactive)	> 100 µM (inactive)	> 100 µM (inactive)	> 100 µM (inactive)	> 100 µM (inactive)	> 100 µM (inactive)	> 100 µM (inactive)	> 100 µM (inactive)	> 100 µM (inactive)	> 100 µM (inactive)	> 100 µM (inactive)	> 100 µM (inactive)	> 100 µM	> 100 µM (inactive)	> 100 µM (inactive)	> 100 µM (inactive)	> 100 µM (inactive)	> 100 µM (inactive)
COC1C=COC2(C)Oc3c(C)c(O)c4c(c3C2=O)/C(=N/C2CCC(O)OC2C)C=C(NC(=O)/C(C)=C\C(=O)C2CC2C(O)C(C)C(O)C(C)C(OC(C)=O)C1C)C4=O (stereo not given)	1.61 µM (inactive)	1.97 µM (inactive)	3.26 µM (inactive)	1.69 µM (inactive)	1.69 µM (inactive)	2.14 µM (inactive)	1.88 µM (inactive)	2.88 µM (inactive)	0.365 µM (active)	2.47 µM (inactive)	2.22 µM (inactive)	2.65 µM (inactive)	2.9 µM (inactive)	1.79 µM (inactive)	2.94 µM	3.48 µM (inactive)	1.89 µM (inactive)	3.05 µM (inactive)	1.86 µM (inactive)	0.962 µM (active)
